Laboratory results published in the supplement of paper PMC10307832.

Key:
Assay in all cases: relative viability (nuclei count vs DMSO), 5 days (fraction); higher = more cells survive
[1] = compound: CC1=C(N=C(N=C1N)[C@H](CC(=O)N)NC[C@@H](C(=O)N)N)C(=O)N[C@@H]([C@H](C2=CN=CN2)OC3C(C(C(C(O3)CO)O)O)OC4C(C(C(C(O4)CO)O)OC(=O)N)O)C(=O)N[C@H](C)[C@H]([C@H](C)C(=O)N[C@@H]([C@@H](C)O)C(=O)NCCC5=NC(=CS5)C6=NC(=CS6)C(=O)NCCC[S+](C)C)O [Bleomycin] + CC(=O)c1c(C)c2cnc(Nc3ccc(N4CCNCC4)cn3)nc2n(C2CCCC2)c1=O [Palbociclib] (partner 0.5 µM); conditions: main component drawn
Summary of the method: (§1)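 Nuclei were stained with Hoechst during a one-step fixation (final 0.05% Triton X-100, 1% formaldehyde, 1 ug/ml Hoechst) carried out 5 days after dosing, then counted on 4× images. The cells, lung cancer lines in 1536-well plates, had been dosed by pin tool the day after seeding with one drug alone or a fixed anchor-drug dose plus five library-drug doses (not always all listed) in √10 steps. Relative viability is the nuclei count in treated wells divided by that in vehicle wells, and each value is the median of duplicate plates.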

[2] = compound: CC1=C(N=C(N=C1N)[C@H](CC(=O)N)NC[C@@H](C(=O)N)N)C(=O)N[C@@H]([C@H](C2=CN=CN2)OC3C(C(C(C(O3)CO)O)O)OC4C(C(C(C(O4)CO)O)OC(=O)N)O)C(=O)N[C@H](C)[C@H]([C@H](C)C(=O)N[C@@H]([C@@H](C)O)C(=O)NCCC5=NC(=CS5)C6=NC(=CS6)C(=O)NCCC[S+](C)C)O [Bleomycin] + NC(=O)Nc1cc(-c2cccc(F)c2)sc1C(=O)N[C@H]1CCCNC1 [AZD7762] (partner 0.2 µM); conditions: main component drawn
Summary of the method: as §1

[3] = compound: COc1cc([C@@H]2c3cc4c(cc3[C@@H](O[C@@H]3O[C@@H]5CO[C@@H](C)O[C@H]5[C@H](O)[C@H]3O)[C@H]3COC(=O)[C@H]23)OCO4)cc(OC)c1O [Etoposide] + C[C@@H](Oc1cc(-c2cnn(C3CCNCC3)c2)cnc1N)c1c(Cl)ccc(F)c1Cl [Crizotinib] (partner 1 µM)
Summary of the method: as §1

[4] = compound: COc1cc([C@@H]2c3cc4c(cc3[C@@H](O[C@@H]3O[C@@H]5CO[C@@H](C)O[C@H]5[C@H](O)[C@H]3O)[C@H]3COC(=O)[C@H]23)OCO4)cc(OC)c1O [Etoposide] + Nc1ncn([C@H]2C[C@H](O)[C@@H](CO)O2)c(=O)n1 [Decitabine] (partner 2 µM)
Summary of the method: as §1

Cell Line | relative viability ([1]; first compound 0.01 µM) | relative viability ([1]; first compound 0.03162 µM) | relative viability ([1]; first compound 0.1 µM) | relative viability ([1]; first compound 0.3162 µM) | relative viability ([1]; first compound 1 µM) | relative viability ([2]; first compound 0.01 µM) | relative viability ([2]; first compound 0.03162 µM) | relative viability ([2]; first compound 0.1 µM) | relative viability ([2]; first compound 0.3162 µM) | relative viability ([2]; first compound 1 µM) | relative viability ([3]; first compound 0.01 µM) | relative viability ([3]; first compound 0.03162 µM) | relative viability ([3]; first compound 0.1 µM) | relative viability ([3]; first compound 0.3162 µM) | relative viability ([3]; first compound 1 µM) | relative viability ([4]; first compound 0.01 µM) | relative viability ([4]; first compound 0.03162 µM) | relative viability ([4]; first compound 0.1 µM) | relative viability ([4]; first compound 0.3162 µM) | relative viability ([4]; first compound 1 µM)
ChaGo-K-1 | 0.847 | 0.831 | 0.862 | 0.512 | 0.386 | 0.785 | 0.824 | 0.808 | 0.692 | 0.504 | 1.08 | 0.888 | 0.576 | 0.306 | 0.304 | 0.448 | 0.546 | 0.397 | 0.291 | 0.229
LK-2 | 0.45 | 0.299 | 0.418 | 0.15 | 0.134 | 0.26 | 0.271 | 0.218 | 0.134 | 0.116 | 0.264 | 0.265 | 0.263 | 0.219 | 0.23 | 0.289 | 0.302 | 0.159 | 0.177 | 0.171
201T | 0.397 | 0.32 | 0.384 | 0.311 | 0.336 | 0.487 | 0.543 | 0.438 | 0.422 | 0.334 | 1.02 | 1.03 | 0.975 | 0.898 | 0.678 | 0.835 | 0.886 | 0.758 | 0.641 | 0.384
HCC-44 | 0.861 | 0.821 | 0.64 | 0.455 | 0.382 | 0.955 | 1 | 0.965 | 0.646 | 0.573 | 0.82 | 0.807 | 0.812 | 0.696 | 0.351 | 1 | 1.06 | 0.984 | 0.905 | 0.55
NCI-H647 | 0.189 | 0.207 | 0.138 | 0.119 | 0.0651 | 0.166 | 0.284 | 0.112 | 0.0842 | 0.0575 | 1.05 | 1.01 | 0.858 | 0.298 | 0.151 | 0.363 | 0.369 | 0.31 | 0.193 | 0.175
H3255 | 0.324 | 0.324 | 0.283 | 0.312 | 0.279 | 0.905 | 0.819 | 0.713 | 0.55 | 0.401 | 0.802 | 0.841 | 0.667 | 0.537 | 0.231 | 0.547 | 0.94 | 0.417 | 0.474 | 0.318
NCI-H650 | 0.282 | 0.34 | 0.307 | 0.255 | 0.2 | 0.949 | 1.07 | 0.723 | 0.515 | 0.36 | 0.568 | 0.831 | 0.416 | 0.339 | 0.174 | 0.318 | 0.339 | 0.278 | 0.205 | 0.174
